Data as given in paper PMC7504466, “In-Vitro and In-Silico Evaluations of Heterocyclic-Containing Diarylpentanoids as Bcl-2 Inhibitors Against LoVo Colorectal Cancer Cells” (Molecules, 2020).

Assays:
LoVo cells [1] = test: Cell apoptosis analysis (Annexin V-PE/7-AAD flow cytometry); type: cell-based, human
Description: LoVo cells (1 × 10^5 cells/well) were seeded into a 6-well plate and incubated at 37 °C and 5% CO2 atmosphere overnight. The seeded cells were then treated with different concentrations of tested compounds for 24, 48 and 72 h. After treatments, cells were trypsinized and washed with PBS followed by the addition of 1× binding buffer (500 μL), Annexin V-PE (5 μL) and 7-AAD (5 μL) solutions. The resulting mixture was then incubated in the dark at 4 °C for 20 min. Upon completion, the mixture was analysed with a flow-cytometer at the PE and APC channel. The values presented are the means ± SD of three independent experiments.

cleaved caspase-7 = test: Western blot, cleaved caspase-7; type: cell-based, human; details: 5 µM, LoVo cells, after 24 h
Description: (§1) Lovo cells (1.5 × 10^4 cells/cm^2) were seeded in a T75 flask and incubated at 37 °C and 5% CO2 atmosphere overnight. The seeded cells were then treated with selected compounds at 5 µM of 2e for 24 h, 48 h, and 72 h. After treatment, the cells were harvested and lysed with phenylmethanesulfonyl fluoride (PMSF)-containing cell lysis buffer. The lysates were then centrifuged at 13,300× g for 15 min and the supernatant was collected. Protein concentrations of all samples were determined using a BCA assay kit (Thermo Scientific Inc., Waltham, MA, USA). Equal amounts of protein were electrophoresed in 12% and 20% SDS-polyacrylamide gel (SDS-PAGE), and electro-transferred onto a 0.22-μm polyvinyldene difluoride membrane. Each membrane was blocked with 5% (w/v) skim milk at room temperature for 1 h followed by overnight incubation with specific primary antibodies (1:1000) at 4 °C. Subsequently, the respective membrane was washed thrice with TBST (0.05% (v/v) of tween-20) followed by 1 h incubation with secondary antibody (1:10,000). Upon completion, the membrane was washed thrice with 1X Tris-Buffered Saline, 0.1% Tween® 20 Detergent (TBST) and the immune reactive bands were developed using SuperSignal West Dura Extended Duration Substrate (Thermo Scientific Inc., Waltham, MA, USA). […]

Bcl-xL = test: Western blot, Bcl-xL; type: cell-based, human; details: 5 µM, LoVo cells, up to 72 h
Description: as §1

Bcl-2 = test: Western blot, Bcl-2; type: cell-based, human; details: 5 µM, LoVo cells, as early as 24 h post-treatment
Description: as §1

Mcl-1 = test: Western blot, Mcl-1; type: cell-based, human; details: 5 µM, LoVo cells, up to 72 h
Description: as §1

LoVo cells [2] = test: Colony formation assay; type: cell-based, human; details: 0.625-5 µM, 7 days post-treatment
Description: LoVo cells (1 × 10^3 cells/well) were seeded into a 6-well plate and incubated at 37 °C and 5% CO2 atmosphere overnight. After incubation, the culture media were replaced with 3 mL of test compounds at various concentration and further incubated for seven days. Upon completion, cells were washed with PBS and fixed with 4% paraformaldehyde for 15 min followed by cell staining with 0.5% (w/v) crystal violet for 20 min. The resultant plates were then washed with tap water and dried at room temperature. Upon drying, the plate image was photographed.

LoVo cells [3] = test: MTT cytotoxicity assay, LoVo cells; type: cell-based; details: Homo sapiens, 72 h post-treatment, read-out: IC50 (µM) KRAS LoVo
Description: The in-vitro cytotoxic activity of the synthesized compounds on seven human CRC cell lines including KRAS (T84, SW620, LoVo) and BRAF (HT29, NCI-H508, RKO and LS411N) mutated cells were determined by MTT assay as previously described. The IC50 values obtained are summarized in Table 2 in which 5-FU and normal human dermal fibroblasts (NHDF) were used as controls. Meanwhile, a heatmap (Figure 3) was also generated using GraphPad Prism v7.0 (GraphPad Software, La Jolla, CA, USA) to visualize the cytotoxic trends of synthesized compounds graphically.
A panel of KRAS (T84, SW620 and LoVo) and BRAF (HT29, NCI-H508, RKO and LS411N) mutated human CRC cell lines were grown in Dulbecco’s modified Eagle’s medium (DMEM) containing 10% fetal bovine serum (FBS) and 1% penicillin/streptomycin at 37 °C under 5% CO2 while NHDF cells were cultured in DMEM with 5% FBS under the same condition. The culture medium was replenished every two days until the cells reached 80–90% confluency for further usage. All cell lines (T84, ATCC®CCL-248™; SW620, ATCC®CCL-227™; LoVo, ATCC®CCL-229™; HT-29, ATCC®HTB-38; NCI-H508, ATCC®CCL-253™; RKO, ATCC®CRL-2577; LS411N, ATCC®CRL-2159; NHDF, ATCC® PCS-201-010™) were purchased from American Type culture Collections (ATCC, Manassas, VA, USA).
LoVo cells (1.5–5 × 10^3 cells/well) were seeded into a 96 well plate and incubated at 37 °C and 5% CO2 atmosphere for 24 h. On the following day, the cell media were replaced with 100 µL of test compounds at various concentration. The final concentration of DMSO in the well is 0.1%. After 72 h of incubation, culture medium was removed and 100 µL of MTT (thiazoyl blue tertrazolium bromide) solution (0.5 mg/mL in culture media) was added. The resultant plates were then further incubated at 37 °C for 4 h. Upon completion, the MTT solution was removed and the formazan salts formed were dissolved in 100 µL of DMSO. The absorbance was recorded with a microplate reader at 570 nm. The IC50 values of tested compounds were calculated from three independent experiments.

LoVo cells [4] = test: Measurement of intracellular ROS levels (DCFH-DA, flow cytometry); type: cell-based, human; details: 5 µM
Description: LoVo cells (1 × 10^5 cells/well) were seeded into a 6-well plate and incubated at 37 °C and 5% CO2 atmosphere overnight. After incubation, the seeded cells were treated with 1 mL of 10 µM DCFDA in culturing media for 1 h. Upon completion, the cells were washed twice with PBS followed by treatments with 5 µM of selected compounds for 24, 48 and 72 h. Then, the treated cells were harvested, washed and re-suspended in PBS followed by flow-cytometric analysis at the FITC channel.

caspase-8 = test: Western blot, caspase-8; type: cell-based, human; details: 5 µM, LoVo cells
Description: as §1

## O=C1C(=Cc2ccccc2Br)CSCC1=Cc1ccccc1Br [Compound 2e, 3,5-Bis(2-bromobenzylidene)tetrahydro-4H-thiopyran-4-one]
LoVo cells [1]
  lowest in vitro effective dose against LoVo cells: 2.5 µM
LoVo cells [1]; 0.625 and 1.25 µM
  cellular apoptosis (annexin V): minimal insignificant effects
LoVo cells [1]; 2.5 and 5 µM, 24-72 h
  cellular apoptosis (annexin V): could induce cellular apoptosis
Cleaved caspase-7
  cleaved caspase-7 level: increased
Bcl-xL
  Bcl-xL expression: remained unaffected
Bcl-2
  Bcl-2 expression: significantly inhibited
Mcl-1
  Mcl-1 expression: remained unaffected
LoVo cells [2]
  colony formation of LoVo cells: inhibit the colony formation of LoVo cells in a dose-dependent manner
LoVo cells [3]
  IC50: 1 µM
LoVo cells [4]; 24 h
  cellular ROS level: rapid increment in cellular ROS level
LoVo cells [4]; 48 h and 72 h
  cellular ROS level: secondary increment of cellular ROS
caspase-8
  caspase-8 cleavage: unaffected
